According to ChEMBL document CHEMBL1123608, “In vivo antitumor activity of 6-benzyl-1,3-benzodioxole derivatives against the P388, L1210, B16, and M5076 murine models” (1987):

Experiments:
[1] = tested on: Mus musculus; experiment: The percent increase in life span on P388 cells which were inoculated intraperitoneally in CD2F1 mice at 200 mg/kg dose placed at ranking order 2; format: functional; details: P388, ip, route intraperitoneal
[2] = tested on: Mus musculus; experiment: The percent increase in life span on P388 cells which were inoculated intraperitoneally in CD2F1 mice at 400 mg/kg (tested in the same control) dose placed at ranking order 1; format: functional; details: P388, ip, route intraperitoneal
[3] = tested on: Mus musculus; experiment: The percent increase in life span on P388 cells which were inoculated intraperitoneally in CD2F1 mice at 400 mg/kg dose placed at ranking order 3; format: functional; details: P388, ip, route intraperitoneal
[4] = tested on: Mus musculus; experiment: The percent increase in life span on P388 cells which were inoculated intraperitoneally in CD2F1 mice at 400 mg/kg dose placed at ranking order 4; format: functional; details: P388, ip, route intraperitoneal
[5] = tested on: Mus musculus; experiment: Percent increase in life span (ILS) was measured on P388 cells which were inoculated intraperitoneally in CD2F1 mice; format: functional
[6] = Ability to inhibit the dibutyryl-cAMP-induced change of an immature glioma cell to a mature, differentiated astrocyte by in vitro astrocytoma assay at 100 ug/mL dose (Experiment #1) value may range from 51 to 70; format: functional, Mus musculus
[7] = Ability to inhibit the dibutyryl-cAMP-induced change of an immature glioma cell to a mature, differentiated astrocyte by in vitro astrocytoma assay at 100 ug/mL dose (Experiment #2) value may range from 31 to 50; format: functional, Mus musculus
[8] = Ability to inhibit the dibutyryl-cAMP-induced change of an immature glioma cell to a mature, differentiated astrocyte by in vitro astrocytoma assay at 10 ug/mL dose (Experiment #1) value may range from 6 to 15; format: functional, Mus musculus
[9] = Ability to inhibit the dibutyryl-cAMP-induced change of an immature glioma cell to a mature, differentiated astrocyte by in vitro astrocytoma assay at 10 ug/mL dose (Experiment #2) value may range from 31 to 50; format: functional, Mus musculus
[10] = Ability to inhibit the dibutyryl-cAMP-induced change of an immature glioma cell to a mature, differentiated astrocyte by in vitro astrocytoma assay at 1 ug/mL dose (Experiment #1) value may range from 0 to 5; format: functional, Mus musculus
[11] = Ability to inhibit the dibutyryl-cAMP-induced change of an immature glioma cell to a mature, differentiated astrocyte by in vitro astrocytoma assay at 1 ug/mL dose (Experiment #2) value may range from 0 to 5; format: functional, Mus musculus
[12] = tested on: Mus musculus; experiment: The percent increase in life span on P388 cells which were inoculated intraperitoneally in CD2F1 mice at 200 mg/kg dose placed at ranking order 1; format: functional; details: P388, ip, route intraperitoneal
[13] = tested on: Mus musculus; experiment: The percent increase in life span on P388 cells which were inoculated intraperitoneally in CD2F1 mice at 200 mg/kg dose placed at ranking order 3; format: functional; details: P388, ip, route intraperitoneal
[14] = tested on: Mus musculus; experiment: The percent increase in life span on P388 cells which were inoculated intraperitoneally in CD2F1 mice at 400 mg/kg (tested in the same control) dose placed at ranking order 4; format: functional; details: P388, ip, route intraperitoneal
[15] = tested on: Mus musculus; experiment: In vivo antitumor activity against the B16 melanoma cell line expressed as percent increase in life span at 100 mg/kg dose; format: functional
[16] = tested on: Mus musculus; experiment: In vivo antitumor activity against the B16 melanoma cell line expressed as percent increase in life span at 200 mg/kg dose; format: functional
[17] = tested on: Mus musculus; experiment: In vivo antitumor activity against the L1210 leukemia cell line expressed as percent increase in life span at 200 mg/kg dose; format: functional; details: Mus musculus, L1210, dose 200 mg/kg
[18] = tested on: Mus musculus; experiment: In vivo antitumor activity against the L1210 leukemia cell line expressed as percent increase in life span at 400 mg/kg dose; format: functional
[19] = tested on: Mus musculus; experiment: In vivo antitumor activity against the M5076 reticulum cell sarcoma expressed as percent increase in life span at 400 mg/kg dose; format: functional
[20] = tested on: Mus musculus; experiment: The percent increase in life span on P388 cells which were inoculated intraperitoneally in CD2F1 mice at 800 mg/kg dose placed at ranking order 2; format: functional; details: P388, ip, route intraperitoneal
[21] = tested on: Mus musculus; experiment: In vivo antitumor activity against the M5076 reticulum cell sarcoma expressed as percent increase in life span at 800 mg/kg doseEach represents a pair of experiments performed with the same control group; format: functional

`CCCOc1cc2c(cc1C(C)c1ccc(OC)cc1)OCO2` (configuration not stated) showed an ILS at 200 mg/kg [1] of 21%, an ILS at 400 mg/kg [2] of 30% and an ILS at 400 mg/kg [3] of 14%. For the same molecule, the ILS at 400 mg/kg [4] was 12% and the ILS [5] was 30%.
For `C=CCOc1cc2c(cc1C(C)c1ccc(OC)cc1)OCO2` (configuration not stated), the Astrocyte reversal [6] was 70%, the Astrocyte reversal [7] was 50% and the Astrocyte reversal [8] was 15%. It also gave an Astrocyte reversal [9] of 50%, an Astrocyte reversal [10] of 5% and an Astrocyte reversal [11] of 5%. It also gave an ILS at 200 mg/kg [12] of 88%, an ILS at 200 mg/kg [13] of 41% and an ILS at 400 mg/kg [14] of 39%. It also gave an ILS at 100 mg/kg [15] of 27%, an ILS at 200 mg/kg [16] of 55% and an ILS at 200 mg/kg [17] of 43%. The ILS at 400 mg/kg [18] was 39%, the ILS at 400 mg/kg [19] was 33% and the ILS at 800 mg/kg [20] was 84%. It also gave an ILS at 800 mg/kg [21] of 58% and an ILS [5] of 88%.
